Source: US20230248657A1, “METHODS OF ADMINISTERING TASTE MASKED PHENYLBUTYRATE AND COMPOSITIONS THEREFOR” (Acer Therapeutics Inc., priority 2020, published 2023)

Assay: Multi-dose plasma PK of PBA, GPB vs. BUPHENYL (NaPB), TID, fed
Format: in vivo, human
Conditions: GPB avg. dose 13.5 TID, N = 44, arithmetic mean

**Q.** For O=C(CCCc1ccccc1)OCC(COC(=O)CCCc1ccccc1)OC(=O)CCCc1ccccc1 [GPB, glycerol phenylbutyrate], which “Plasma PBA AUC0-24” value is on record?
**A.** 443 µg·h/mL

**Q.** What about the “Plasma PBA Cmax” value of the same compound?
**A.** 51.9 µg/mL

**Q.** What about the “Plasma PBA Tmax” value of the same compound?
**A.** 8.0 h
